Reference: ChEMBL document CHEMBL1152751, “2,5-Disubstituted tetrahydrofurans as selective serotonin re-uptake inhibitors” (Bioorg Med Chem, 2009)
Calls of active or inactive are those of the source. The rule behind the calls is not given here.

Assays:
[1] = biological target: T1, Sodium-dependent dopamine transporter (Homo sapiens, UniProt Q01959); assay: Inhibition of [3H]dopamine reuptake at human DAT expressed in HEK cells; format: cell-based, HEK293
[2] = biological target: T2, Sodium-dependent noradrenaline transporter (Homo sapiens, UniProt P23975); assay: Inhibition of [3H]norepinephrine reuptake at human NET expressed in HEK cells; format: cell-based, HEK293
T2 sequence (P23975 whole entry): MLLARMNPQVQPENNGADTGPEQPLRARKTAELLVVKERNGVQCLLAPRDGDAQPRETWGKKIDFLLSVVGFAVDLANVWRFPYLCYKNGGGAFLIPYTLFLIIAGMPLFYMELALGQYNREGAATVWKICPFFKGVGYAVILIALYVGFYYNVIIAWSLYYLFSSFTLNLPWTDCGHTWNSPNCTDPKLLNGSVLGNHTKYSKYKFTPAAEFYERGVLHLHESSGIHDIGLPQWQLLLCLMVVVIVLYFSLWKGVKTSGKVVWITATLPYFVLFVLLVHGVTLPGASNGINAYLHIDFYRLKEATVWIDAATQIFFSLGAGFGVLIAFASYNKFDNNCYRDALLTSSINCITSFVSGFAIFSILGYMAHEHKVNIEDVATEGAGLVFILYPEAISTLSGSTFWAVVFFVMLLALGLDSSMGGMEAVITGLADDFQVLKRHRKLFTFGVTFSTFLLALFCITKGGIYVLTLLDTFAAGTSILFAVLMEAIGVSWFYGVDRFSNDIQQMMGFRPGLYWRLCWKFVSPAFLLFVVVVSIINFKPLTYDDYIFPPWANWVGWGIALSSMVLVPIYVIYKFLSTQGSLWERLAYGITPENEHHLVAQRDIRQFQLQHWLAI

[3] = biological target: T3, Sodium-dependent serotonin transporter (Homo sapiens, UniProt P31645); assay: Inhibition of [3H]serotonin reuptake at human SERT expressed in HEK cells; format: cell-based, HEK293
T3 sequence (P31645 whole entry): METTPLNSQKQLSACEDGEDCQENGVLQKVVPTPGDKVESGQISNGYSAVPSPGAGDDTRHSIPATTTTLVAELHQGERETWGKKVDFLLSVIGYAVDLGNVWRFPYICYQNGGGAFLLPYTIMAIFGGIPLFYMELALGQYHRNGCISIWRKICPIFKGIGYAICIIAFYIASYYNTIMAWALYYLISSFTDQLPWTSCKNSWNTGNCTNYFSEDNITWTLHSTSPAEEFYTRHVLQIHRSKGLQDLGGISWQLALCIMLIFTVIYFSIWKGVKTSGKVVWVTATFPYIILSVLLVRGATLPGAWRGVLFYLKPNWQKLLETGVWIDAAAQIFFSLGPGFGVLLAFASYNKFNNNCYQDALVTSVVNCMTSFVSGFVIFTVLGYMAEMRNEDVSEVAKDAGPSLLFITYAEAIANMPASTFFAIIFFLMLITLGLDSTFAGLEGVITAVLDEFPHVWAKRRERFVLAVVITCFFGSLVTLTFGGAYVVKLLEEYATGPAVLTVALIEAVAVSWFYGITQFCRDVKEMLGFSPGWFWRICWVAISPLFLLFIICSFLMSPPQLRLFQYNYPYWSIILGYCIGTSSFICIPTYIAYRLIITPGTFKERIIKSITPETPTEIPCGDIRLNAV

[4] = biological target: T1, Sodium-dependent dopamine transporter; assay: biochemical; format: cell-based, HEK293
Description: Displacement of [125I]RTI55 from human DAT expressed in HEK cells

[5] = biological target: T3, Sodium-dependent serotonin transporter; assay: biochemical; format: cell-based, HEK293
Description: Displacement of [125I]RTI55 from human SERT expressed in HEK cells

[6] = biological target: T2, Sodium-dependent noradrenaline transporter; assay: biochemical; format: cell-based, HEK293
Description: Displacement of [125I]RTI55 from human NET expressed in HEK cells

Mus musculus [7] = assay: Antidepressant activity in BALB/c mouse assessed as decrease in duration of immobility at 10 mg/kg, ip pretreated 30 mins before test by forced swimming test; format: functional, organism-based; parameters: dose 10 mg/kg
[8] = Metabolic stability assessed as half life in rat liver microsomes; format: ADME, Microsome
[9] = Metabolic stability assessed as half life in mouse liver microsomes; format: ADME, Microsome
Mus musculus [10] = assay: Antidepressant activity in ICR mouse assessed as change in duration of immobility at 10 mg/kg, ip pretreated 30 mins before test by forced swimming test; format: functional, organism-based; parameters: dose 10 mg/kg
Mus musculus [11] = assay: Antidepressant activity in BALB/c mouse assessed as change in duration of immobility at 20 mg/kg, ip pretreated 30 mins before test by forced swimming test; format: functional, organism-based; parameters: dose 20 mg/kg

T1 sequence (Q01959 whole entry): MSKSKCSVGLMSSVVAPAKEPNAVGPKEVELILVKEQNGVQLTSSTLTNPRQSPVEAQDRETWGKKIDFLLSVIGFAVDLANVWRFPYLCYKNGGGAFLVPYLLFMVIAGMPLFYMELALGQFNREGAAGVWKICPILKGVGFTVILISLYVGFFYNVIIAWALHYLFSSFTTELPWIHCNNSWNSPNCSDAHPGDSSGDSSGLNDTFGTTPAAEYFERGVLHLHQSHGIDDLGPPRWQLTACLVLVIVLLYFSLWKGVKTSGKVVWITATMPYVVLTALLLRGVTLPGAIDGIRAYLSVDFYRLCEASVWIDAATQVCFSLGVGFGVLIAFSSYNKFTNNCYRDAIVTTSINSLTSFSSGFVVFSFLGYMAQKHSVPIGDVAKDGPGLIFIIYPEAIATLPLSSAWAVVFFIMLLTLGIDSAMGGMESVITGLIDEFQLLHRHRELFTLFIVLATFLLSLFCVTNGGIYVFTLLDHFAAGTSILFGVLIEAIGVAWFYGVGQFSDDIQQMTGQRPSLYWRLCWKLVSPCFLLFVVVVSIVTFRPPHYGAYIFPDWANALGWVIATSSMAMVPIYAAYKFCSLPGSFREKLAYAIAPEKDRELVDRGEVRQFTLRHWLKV

For `COc1ccc(F)cc1C[C@@H]1CC[C@H](CN)O1` (relative stereo), the IC50 [1] was 18.7 µM.
In the case of `COc1ccc(F)cc1C[C@H]1CC[C@H](CCN)O1` (relative stereo), the IC50 [2] is reported as 1.77 µM.
`COc1ccc(F)cc1C[C@H]1CC[C@H](CN)O1` (relative stereo) gave an IC50 [1] of 28.9 µM.
With `COc1ccc(F)cc1CCC[C@@H]1CC[C@H](CN)O1` (relative stereo) the IC50 [3] was 0.0026 µM, the Ki [4] was 4.58 µM and the Ki [5] was 0.0028 µM. It also gave an IC50 [1] of 6.29 µM.
Work on `COc1ccc(F)cc1CCC[C@H]1CC[C@H](CN)O1` (relative stereo) yielded an IC50 [3] of 0.0021 µM, a Ki [5] of 0.0008 µM and an IC50 [1] of 7.62 µM.
Compound `NCC1CCC(CCc2c(F)c(F)c(F)c(F)c2F)O1` (configuration not stated) has a Ki [4] greater than 10 µM.
Compound `COc1ccc(F)cc1C[C@@H]1CC[C@H](CCN)O1` (relative stereo) has an IC50 [2] of 1.86 µM.
In the case of `NCCC1CCC(Cc2ccccc2)O1` (configuration not stated), the Ki [6] is reported as greater than 10 µM and the Ki [4] is reported as greater than 10 µM.
In the case of `COc1ccc2ccccc2c1CCC1CCC(CCN)O1` (configuration not stated), the Ki [6] is reported as greater than 10 µM and the Ki [4] is reported as greater than 10 µM.
With `CC(C)(C)c1ccc(C2CCC(CN)O2)cc1` (configuration not stated) the Ki [4] was greater than 10 µM and the Ki [5] was greater than 10 µM.
In the case of `COc1ccc(F)cc1CCCC1CCC(CCN)O1` (mixture of isomers), the Activity (Mus musculus [7]) is reported as “inactive”.
Compound `CNCCC1CCC(CCc2cc(F)ccc2OC)O1` (configuration not stated) has a half-life [8] of 129 min and a half-life [9] of 58.5 min.
In the case of `COc1ccc(F)cc1CCC1CCC(CCN)O1` (configuration not stated), the Activity (Mus musculus [10]) is reported as “inactive” and the half-life [9] is reported as 56 min.
`NCC1CCC(CCc2cccnc2)O1` (configuration not stated) gave an IC50 [3] of 2.72 µM, an IC50 [2] greater than 10 µM and a Ki [4] greater than 10 µM. The IC50 [1] was greater than 10 µM.
`COc1ccc(CCC2CCC(CCN)O2)c2ccccc12` (configuration not stated) gave a Ki [6] greater than 10 µM and a Ki [4] greater than 10 µM.
Work on `NCCC1CCC(c2ccco2)O1` (configuration not stated) yielded a Ki [6] greater than 10 µM, an IC50 [3] greater than 10 µM and an IC50 [2] greater than 10 µM. It also gave a Ki [4] greater than 10 µM, a Ki [5] greater than 10 µM and an IC50 [1] greater than 10 µM.
`NCC1CCC(c2ccc3ccccc3c2)O1` (configuration not stated) gave a Ki [6] greater than 10 µM and an IC50 [3] of 0.004 µM.
For `NCC1CCC(c2ccc(Br)cc2)O1` (configuration not stated), the Ki [6] was greater than 10 µM.
`COc1ccc(F)cc1C1CCC(CN)O1` (configuration not stated) gave an IC50 [1] greater than 10 µM.
`COc1ccc(F)cc1CC[C@H]1CC[C@H](CN)O1` gave a Ki [4] of 14.5 µM.
Compound `NCC1CCC(CCc2cccc3ccccc23)O1` (configuration not stated) has a Ki [6] greater than 10 µM, a Ki [4] greater than 10 µM and a Ki [5] of 0.018 µM. For the same compound, the IC50 [1] was greater than 10 µM.
Work on `COc1ccc(F)cc1[C@@H]1CC[C@H](CCN)O1` (relative stereo) yielded a Ki [4] greater than 10 µM and an IC50 [1] greater than 10 µM.
In the case of `CNCCC(Oc1ccc(C(F)(F)F)cc1)c1ccccc1` (configuration not stated), the Activity (Mus musculus [7]) is reported as “Active” and the Activity (Mus musculus [11]) is reported as “inactive”.
`COc1ccc(F)cc1[C@H]1CC[C@H](CN)O1` (relative stereo) showed a Ki [4] greater than 10 µM and an IC50 [1] greater than 10 µM.
With `COc1ccc(C2CCC(CN)O2)cc1` (configuration not stated) the Ki [4] was greater than 10 µM.
`COc1ccc(F)cc1[C@H]1CC[C@H](CCN)O1` showed a Ki [4] of 32.9 µM and an IC50 [1] greater than 10 µM.
`COc1ccc(F)cc1CCCC[C@H]1CC[C@H](CN)O1` (relative stereo) gave an IC50 [3] of 0.084 µM, a Ki [4] of 3.87 µM and a Ki [5] of 0.004 µM. For the same compound, the IC50 [1] was 16.5 µM.
